Experimental findings from patent US20220380314A1, “SUBSTITUTED, SATURATED AND UNSATURATED N-HETEROCYCLIC CARBOXAMIDES AND RELATED COMPOUNDS FOR THEIR USE IN THE TREATMENT OF MEDICAL DISORDERS” (Bial - R&D Investments, S.A., priority 2019, published 2022) are described below.

Broadly, the IC50 is the concentration needed to halve the response being measured.

Where a name gives a salt, the structure may show the parent alone.

This experiment has as its target T1, acid ceramidase (hACR) (Homo sapiens, UniProt Q13510).
T1 construct: expressed in transfected cells; cell lysate used
T1 sequence (Q13510 143-395 limits assumed): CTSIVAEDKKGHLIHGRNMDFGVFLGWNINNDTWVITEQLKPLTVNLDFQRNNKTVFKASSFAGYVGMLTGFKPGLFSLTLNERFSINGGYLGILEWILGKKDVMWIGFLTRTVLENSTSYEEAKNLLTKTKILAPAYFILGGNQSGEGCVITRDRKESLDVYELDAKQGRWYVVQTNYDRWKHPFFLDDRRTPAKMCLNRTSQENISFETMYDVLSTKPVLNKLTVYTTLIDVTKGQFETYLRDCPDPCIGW
T1 sequence (Q13510 22-142 limits assumed): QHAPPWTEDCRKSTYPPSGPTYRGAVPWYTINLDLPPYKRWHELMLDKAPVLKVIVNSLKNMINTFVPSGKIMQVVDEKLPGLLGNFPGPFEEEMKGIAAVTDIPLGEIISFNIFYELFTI
Put plainly: Acid ceramidase inhibition, biochemical fluorescent assay with cell lysates overexpressing acid ceramidase, substrate Rbm14-12. The settings on record: cell lysates overexpressing acid ceramidase; 1 hr preincubation at RT; pH 4.5; substrate Rbm14-12 6.3 μM; read-out: hACR IC50. The method, then:
The ability of exemplary compounds to inhibit acid ceramidase was measured.
Cell lysates overexpressing acid ceramidase were used as the enzyme source for compound potency determination in a biochemical fluorescent assay. Briefly, compounds were preincubated with 10 µg protein of cell lysates in a dose-response manner for 1 hr at RT in the assay buffer containing 25 mM NaAC and 100 mM NaCl, pH 4.5. The reaction was initiated by the addition of substrate Rbm14-12 at a final concentration of 6.3 μM. The reaction was run at RT for 1 hr before it was stopped by the addition of the stopping buffer containing 20% methanol (v/v), 1 mg/ml NaIO4, 0.1 M glycine, pH 10.6. The samples were incubated with the stopping buffer at RT for 1 hr to allow the fluorescent product to be formed. Finally the plate was read with SpectraMax i3 plate reader (Molecular Devices) at ex360 nm and em446 nm. Data were collected and used to determine the IC50 values of compounds by curve fitting to the four-parameter inhibition equation.
The symbol “A” indicates inhibition of less than 0.2 μM; the symbol “B” indicates inhibition in the range of 0.2 μM up to 1 μM; and the symbol “C” indicates inhibition of greater than 1 μM.
Take `CC1CCC(c2ccccc2)CN1C(=O)NCCCCc1ccccc1` (mixture of isomers) [Example 80, 2-Methyl-5-phenyl-N-(4-phenylbutyl)piperidine-1-carboxamide]: the IC50 was less than 0.2 µM.
The same measure for `CC1C(c2ccccc2)CCCN1C(=O)NCCCCc1ccccc1` (mixture of isomers) [Example 81, 2-Methyl-3-phenyl-N-(4-phenylbutyl)piperidine-1-carboxamide]: 0.2 to 1 µM; for `CCCCCNC(=O)N1[C@@H]2CC[C@H]1CC(c1ccccc1)C2` (mixture of isomers) [Example 82, endo- and exo-N-Pentyl-3-phenyl-8-azabicyclo[3.2.1]octane-8-carboxamide]: greater than 1 µM.
For `CC1(C)CC(N2CCCCC2c2ccccc2)CCN1C(=O)NCCCCc1ccccc1` (mixture of isomers) [Example 91, 2,2-Dimethyl-N-(4-phenylbutyl)-4-(2-phenyl-1-piperidyl)piperidine-1-carboxamide], the IC50 is greater than 1 µM.
Regarding `CC1(C)CC(N2CCCC(c3ccccc3)C2)CCN1C(=O)NCCCCc1ccccc1` (mixture of isomers) [Example 92, 2,2-Dimethyl-N-(4-phenylbutyl)-4-(3-phenyl-1-piperidyl)piperidine-1-carboxamide], the IC50 is greater than 1 µM.
The same measure for `CC1CC(N2CCCCC2)CCN1C(=O)NCCCCc1ccccc1` (mixture of isomers) [Example 94, 2-Methyl-N-(4-phenylbutyl)-4-(1-piperidyl)piperidine-1-carboxamide]: less than 0.2 µM.
As to `CCCCCNC(=O)N1CCC(N2CCCCC2)C[C@@H]1C` (mixture of isomers) [Example 97, (2S)-Methyl-N-pentyl-4-(1-piperidyl)piperidine-1-carboxamide], the IC50 lay in the range of 0.2 to 1 µM.
For the molecule `CC[C@H](C)NC(=O)N1C(c2ccc(OC)cc2)COCC1(C)C` (mixture of isomers) [Example 155, (5R) AND (5S)-5-(4-Methoxyphenyl)-3,3-dimethyl-N-[(1S)-1-methylpropyl]morpholine-4-carboxamide], the IC50 was less than 0.2 µM.
For `CCCCCNC(=O)N1C(c2ccc(F)cc2)COCC1(C)C` (single isomer, unassigned) [Example 138, (5S) or (5R)-5-(4-Fluorophenyl)-3,3-dimethyl-N-pentylmorpholine-4-carboxamide] the value was less than 0.2 µM; for `CCCCCNC(=O)N1C(c2ccc(F)cc2)COCC1(C)C` (single isomer, unassigned) [Example 139, (5S) or (5R)-5-(4-fluorophenyl)-3,3-dimethyl-N-pentylmorpholine-4-carboxamide], less than 0.2 µM; for `CC1(C)CCc2c(-c3ccccn3)cccc2N1C(=O)NCCc1ccccc1` [Example 5, 2,2-Dimethyl-N-phenethyl-5-(pyridin-2-yl)-3,4-dihydroquinoline-1(2H)-carboxamide], greater than 1 µM.
The same measure for `CCCCCNC(=O)N1CCC(c2ccccc2)CC1(C)C` (stereo not shown) [Example 76, 2,2-Dimethyl-N-pentyl-4-phenylpiperidine-1-carboxamide]: greater than 1 µM.
Consider `CC1(C)CC(c2ccccc2)CCN1C(=O)NC1CCOCC1` (stereo not shown) [Example 78, 2,2-Dimethyl-4-phenyl-N-tetrahydropyran-4-yl-piperidine-1-carboxamide], for which the IC50 is greater than 1 µM.
`CCCCCNC(=O)N1CCC(N2CCCCC2)CC1(C)C` (stereo not shown) [Example 84, 2,2-Dimethyl-N-pentyl-4-(1-piperidyl)piperidine-1-carboxamide]: the IC50 is less than 0.2 µM.
For the molecule `CCCCCCCNC(=O)N1CCC(N2CCCCC2)CC1(C)C` (stereo not shown) [Example 85, N-Heptyl-2,2-dimethyl-4-(1-piperidyl)piperidine-1-carboxamide], the IC50 was greater than 1 µM.
`CN1CCN(C2CCN(C(=O)NCCCCc3ccccc3)C(C)(C)C2)CC1` (stereo not shown) [Example 87, 2,2-Dimethyl-4-(4-methylpiperazin-1-yl)-N-(4-phenylbutyl)piperidine-1-carboxamide dihydrochloride]: the IC50 was less than 0.2 µM.
For `CC1(C)CCCCN1C(=O)NCCCCc1ccccc1` [Example 90, 2,2-Dimethyl-N-(4-phenylbutyl)piperidine-1-carboxamide carboxamide] the value was greater than 1 µM; for `CC1(C)CC(N2CCC(c3ccccc3)CC2)CCN1C(=O)NCCCCc1ccccc1` (stereo not shown) [Example 93, 2,2-Dimethyl-N-(4-phenylbutyl)-4-(4-phenyl-1-piperidyl)piperidine-1-carboxamide], less than 0.2 µM.
The same measure for `CCCCCNC(=O)N1CCC(N2CCCCC2)CC1C` (stereo not shown) [Example 95, 2-Methyl-N-pentyl-4-(1-piperidyl)piperidine-1-carboxamide]: 0.2 to 1 µM; for `CCCCCNC(=O)N1CCC(N2CCCCC2)C[C@H]1C` (stereo partly drawn) [Example 96, (2R)-Methyl-N-pentyl-4-(1-piperidyl)piperidine-1-carboxamide hydrochloride salt]: less than 0.2 µM; for `CCCCCNC(=O)N1C(C)CC(N2CCCCC2)CC1C` (stereo not shown) [Example 98, 2,6-Dimethyl-N-pentyl-4-(1-piperidyl)piperidine-1-carboxamide hydrochloride]: less than 0.2 µM.
For the molecule `CC1(C)CCC(N2CCCCC2)CN1C(=O)NCCCCc1ccccc1` (stereo not shown) [Example 99, 2,2-Dimethyl-N-(4-phenylbutyl)-5-(1-piperidyl)piperidine-1-carboxamide], the IC50 is less than 0.2 µM.
For `CC1CCC(N2CCCCC2)CN1C(=O)NCCCCc1ccccc1` (stereo not shown) [Example 100, 2-Methyl-N-(4-phenylbutyl)-5-(1-piperidyl)piperidine-1-carboxamide] the value was 0.2 to 1 µM; for `CC1C(N2CCCCC2)CCCN1C(=O)NCCCCc1ccccc1` (stereo not shown) [Example 101, 2-Methyl-N-(4-phenylbutyl)-3-(1-piperidyl)piperidine-1-carboxamide], 0.2 to 1 µM.
The same measure for `CCCCCNC(=O)N1[C@@H]2CC[C@H]1C[C@H](N1CCCCC1)C2` [Example 102, Exo-N-Pentyl-3-(1-piperidyl)-8-azabicyclo[3.2.1]octane-8-carboxamide]: greater than 1 µM; for `CC1(C)CN(c2ccccc2)CCN1C(=O)NCCCCc1ccccc1` [Example 103, 2,2-Dimethyl-4-phenyl-N-(4-phenylbutyl)piperazine-1-carboxamide]: less than 0.2 µM; for `CC1(C)CN(c2ccccn2)CCN1C(=O)NCCCCc1ccccc1` [Example 104, 2,2-Dimethyl-N-(4-phenylbutyl)-4-(2-pyridyl)piperazine-1-carboxamide]: greater than 1 µM.
For the molecule `CC1(C)CN(c2cncnc2)CCN1C(=O)NCCCCc1ccccc1` [Example 105, 2,2-Dimethyl-N-(4-phenylbutyl)-4-pyrimidin-5-yl-piperazine-1-carboxamide], the IC50 is greater than 1 µM.
On to `CC1(C)C(=O)N(c2ccccc2)CCN1C(=O)NCCCCc1ccccc1` [Example 106, 2,2-Dimethyl-3-oxo-4-phenyl-N-(4-phenylbutyl)piperazine-1-carboxamide], for which the IC50 was less than 0.2 µM.
With `CCCCCNC(=O)N1CCN(c2ccccc2)C(=O)C1(C)C` [Example 107, 2,2-Dimethyl-3-oxo-N-pentyl-4-phenylpiperazine-1-carboxamide], the IC50 fell in the range of 0.2 to 1 µM.
For the molecule `CC1(C)C(=O)N(c2ccccc2)CCN1C(=O)NCCOCc1ccccc1` [Example 108, N-(2-Benzyloxyethyl)-2,2-dimethyl-3-oxo-4-phenylpiperazine-1-carboxamide], the IC50 is greater than 1 µM.
`COc1cc(N2CCN(C(=O)NCCCCc3ccccc3)C(C)(C)C2=O)ccc1F` [Example 109, 4-(4-Fluoro-3-methoxy-phenyl)-2,2-dimethyl-3-oxo-N-(4-phenylbutyl)piperazine-1-carboxamide]: the IC50 was less than 0.2 µM.
Turning to `CC1(C)CN(C2CCCCC2)CCN1C(=O)NCCCCc1ccccc1` [Example 110, 4-Cyclohexyl-2,2-dimethyl-N-(4-phenylbutyl)piperazine-1-carboxamide], the IC50 is less than 0.2 µM.
Turning to `CC1(C)CN(C2CC2)CCN1C(=O)NCCCCc1ccccc1` [Example 111, 4-Cyclopropyl-2,2-dimethyl-N-(4-phenylbutyl)piperazine-1-carboxamide], the IC50 is less than 0.2 µM.
For `CCCCCNC(=O)N1CCN(C2CC2)CC1(C)C` [Example 112, 4-Cyclopropyl-2,2-dimethyl-N-pentylpiperazine-1-carboxamide] the value was less than 0.2 µM.
For `C[C@@H]1CN(C(=O)NCCCCc2ccccc2)[C@@H](C)CN1C1CC1` [Example 113, (2S,5R)-4-Cyclopropyl-2,5-dimethyl-N-(4-phenylbutyl)piperazine-1-carboxamide] the value was 0.2 to 1 µM; for `CCCCCNC(=O)N1C[C@@H](C)N(C2CC2)C[C@@H]1C` [Example 114, (2S,5R)-4-cyclopropyl-2,5-dimethyl-N-pentylpiperazine-1-carboxamide], greater than 1 µM.
